Where two headings read alike, the source gives them in different places.
Experiments:
[1] = molecular target: human Gal-3 (hGal-3) (Homo sapiens (Human), UniProt P17931); assay: competitive binding assay: biotinylated hGal-3 binding to microplate-adsorbed asialofetuin (ASF); details: 2-OMe-Gal inhibitors, read-out: IC50 (Gal-3 inhibition)
Outline: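 Peroxidase activity developed with ABTS measures the biotinylated hGal-3 remaining on the asialofetuin-coated surface after competition with test compounds. Incubation ran 3 h at 4 °C, followed by 1 h with streptavidin-peroxidase at 80 ng/mL.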

[2] = molecular target: human Gal-1 (hGal-1) (Homo sapiens (Human), UniProt P09382); assay: competitive binding assay: biotinylated hGal-1 binding to microplate-adsorbed asialofetuin (ASF); details: Table 15; read-out: IC50 (Galectin-1 inhibition)
Outline: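 Biotinylated human Gal-1 (300-1000 ng/mL) competes with serially diluted compound for binding to ASF-coated plates, 3 h at 4° C. Bound protein detected with streptavidin-peroxidase and ABTS substrate (spectrophotometric). IC50 given as mean of several measurements.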

Chain of human Gal-1 (hGal-1) (P09382 whole entry): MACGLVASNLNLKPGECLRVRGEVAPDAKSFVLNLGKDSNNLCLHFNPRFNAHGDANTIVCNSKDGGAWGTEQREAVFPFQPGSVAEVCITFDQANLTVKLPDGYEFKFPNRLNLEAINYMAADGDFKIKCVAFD
Chain of human Gal-3 (hGal-3) (P17931 whole entry): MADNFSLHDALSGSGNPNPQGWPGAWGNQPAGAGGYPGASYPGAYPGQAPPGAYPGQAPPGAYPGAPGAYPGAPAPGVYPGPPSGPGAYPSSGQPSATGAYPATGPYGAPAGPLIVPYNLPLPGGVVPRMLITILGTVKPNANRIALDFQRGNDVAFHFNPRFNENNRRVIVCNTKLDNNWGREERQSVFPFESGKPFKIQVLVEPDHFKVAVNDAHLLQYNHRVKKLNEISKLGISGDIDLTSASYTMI

SMILES | IC50 ([1]; Table 10) [nM] | IC50 [2] [nM] | IC50 ([1]; Table 9) [nM]
CO[C@@H]1[C@@H](n2cc(-c3cc(F)c(F)c(F)c3)nn2)[C@@H](O)[C@@H](CO)O[C@H]1S[C@H](c1c(C)cnn1C)C1(O)CCC(F)(F)CC1 [Example 2.44.136R.I., (2R,3R,4S,5R,6S)-6-(((R)-(4,4-Difluoro-1-hydroxycyclohexyl)(1,4-dimethyl-1H-pyrazol-5-yl)methyl)thio)-2-(hydroxymethyl)-5-methoxy-4-(4-(3,4,5-trifluorophenyl)-1H-1,2,3-triazol-1-yl)tetrahydro-2H-pyran-3-ol] | 260 | 1900 | –
CCn1nnc(C)c1C(S[C@@H]1O[C@H](CO)[C@H](O)[C@H](n2cc(-c3cc(F)c(F)c(F)c3)nn2)[C@H]1OC)C1(O)CCC(F)(F)CC1 (stereo partly drawn) [Example 2.44.138.I., (2R,3R,4S,5R,6S)-6-(((4,4-Difluoro-1-hydroxycyclohexyl)(1-ethyl-4-methyl-1H-1,2,3-triazol-5-yl)methyl)thio)-2-(hydroxymethyl)-5-methoxy-4-(4-(3,4,5-trifluorophenyl)-1H-1,2,3-triazol-1-yl)tetrahydro-2H-pyran-3-ol] | 300 | 840 | –
CCn1nnc(C)c1[C@@H](S[C@@H]1O[C@H](CO)[C@H](O)[C@H](n2cc(-c3cc(F)c(F)c(F)c3)nn2)[C@H]1OC)C1(O)CCC(F)(F)CC1 [Example 2.44.138R.I., (2R,3R,4S,5R,6S)-6-(((R)-(4,4-Difluoro-1-hydroxycyclohexyl)(1-ethyl-4-methyl-1H-1,2,3-triazol-5-yl)methyl)thio)-2-(hydroxymethyl)-5-methoxy-4-(4-(3,4,5-trifluorophenyl)-1H-1,2,3-triazol-1-yl)tetrahydro-2H-pyran-3-ol] | 150 | 400 | –
CCn1nnc(C)c1[C@H](S[C@@H]1O[C@H](CO)[C@H](O)[C@H](n2cc(-c3cc(F)c(F)c(F)c3)nn2)[C@H]1OC)C1(O)CCC(F)(F)CC1 [Example 2.44.138S.I., (2R,3R,4S,5R,6S)-6-(((S)-(4,4-Difluoro-1-hydroxycyclohexyl)(1-ethyl-4-methyl-1H-1,2,3-triazol-5-yl)methyl)thio)-2-(hydroxymethyl)-5-methoxy-4-(4-(3,4,5-trifluorophenyl)-1H-1,2,3-triazol-1-yl)tetrahydro-2H-pyran-3-ol] | 13200 | > 100000 | –

More lines, now with the values ahead:

IC50 ([1]; Table 10) [nM] | IC50 [2] [nM] | IC50 ([1]; Table 9) [nM] | SMILES
15600 | > 100000 | – | CO[C@@H]1[C@@H](n2cc(-c3cc(F)c(F)c(F)c3)nn2)[C@@H](O)[C@@H](CO)O[C@H]1S[C@@H](c1c(C)cnn1C)C1(O)CCC(F)(F)CC1 [Example 2.44.136S.I., (2R,3R,4S,5R,6S)-6-(((S)-(4,4-Difluoro-1-hydroxycyclohexyl)(1,4-dimethyl-1H-pyrazol-5-yl)methyl)thio)-2-(hydroxymethyl)-5-methoxy-4-(4-(3,4,5-trifluorophenyl)-1H-1,2,3-triazol-1-yl)tetrahydro-2H-pyran-3-ol]
– | 4360 | 140 | CO[C@@H]1[C@@H](n2cc(-c3cc(F)c(F)c(F)c3)nn2)[C@@H](O)[C@@H](CO)O[C@H]1SC(c1ncccc1Cl)C1(O)CCC(F)(F)CC1 (stereo partly drawn) [Example 2.44.137.I., (2R,3R,4S,5R,6S)-6-(((3-Chloropyridin-2-yl)(4,4-difluoro-1-hydroxycyclohexyl)methyl)thio)-2-(hydroxymethyl)-5-methoxy-4-(4-(3,4,5-trifluorophenyl)-1H-1,2,3-triazol-1-yl)tetrahydro-2H-pyran-3-ol]
– | 720 | 70 | CO[C@@H]1[C@@H](n2cc(-c3cc(F)c(F)c(F)c3)nn2)[C@@H](O)[C@@H](CO)O[C@H]1S[C@H](c1ncccc1Cl)C1(O)CCC(F)(F)CC1 [Example 2.44.137R.I., (2R,3R,4S,5R,6S)-6-(((R)-(3-Chloropyridin-2-yl)(4,4-difluoro-1-hydroxycyclohexyl)methyl)thio)-2-(hydroxymethyl)-5-methoxy-4-(4-(3,4,5-trifluorophenyl)-1H-1,2,3-triazol-1-yl)tetrahydro-2H-pyran-3-ol]

— patent US12404295B2, “(Hetero)aryl-methyl-thio-beta-D-galactopyranoside derivatives” (Idorsia Pharmaceuticals Ltd, priority 2019, dated 2025)
